Measurements taken from publication PMC3150642 (Journal of medicinal chemistry, 2011).

Assays:
[1] = target: T1, Human platelet 12-lipoxygenase (12-LOX) (Homo sapiens, UniProt P18054); test: Lipoxygenase UV-Vis-based manual assay, 12-LOX; assay type: biochemical; conditions: Triton X-100 from 0.005% to 0.02%
T1 sequence (P18054 1-663): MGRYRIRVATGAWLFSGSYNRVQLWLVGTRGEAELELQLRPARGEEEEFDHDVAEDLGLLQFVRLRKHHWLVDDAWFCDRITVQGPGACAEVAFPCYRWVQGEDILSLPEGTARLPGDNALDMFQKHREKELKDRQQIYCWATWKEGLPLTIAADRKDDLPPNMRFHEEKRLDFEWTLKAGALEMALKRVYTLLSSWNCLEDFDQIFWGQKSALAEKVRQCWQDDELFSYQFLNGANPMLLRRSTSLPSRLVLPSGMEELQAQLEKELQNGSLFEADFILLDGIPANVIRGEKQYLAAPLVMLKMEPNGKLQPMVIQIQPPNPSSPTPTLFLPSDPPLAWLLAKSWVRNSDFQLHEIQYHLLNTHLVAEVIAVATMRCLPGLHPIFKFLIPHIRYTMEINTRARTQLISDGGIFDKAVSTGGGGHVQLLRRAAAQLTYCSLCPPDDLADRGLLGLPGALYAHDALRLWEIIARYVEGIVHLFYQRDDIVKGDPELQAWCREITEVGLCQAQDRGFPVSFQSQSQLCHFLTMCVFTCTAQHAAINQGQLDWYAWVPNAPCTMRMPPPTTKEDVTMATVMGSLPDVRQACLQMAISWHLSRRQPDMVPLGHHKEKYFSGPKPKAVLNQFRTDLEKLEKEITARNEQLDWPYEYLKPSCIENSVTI

DPPH Antioxidant Test = conditions: 5 μM test reagent, 500 μM DPPH
12-LOX in platelets = target: T2, 12-LOX in platelets (Homo sapiens, UniProt P18054); conditions: 100 μM inhibitor, three separate experiments
T2 sequence (P18054 1-663): T1 sequence (P18054 1-663)

[2] = target: T3, 12-LOX in primary human islets (Homo sapiens, UniProt P18054); test: Inhibition of 12-HETE Production in Human Donor Islets; assay type: cell-based; conditions: 10 μM, islets of two type 2 diabetic donors, AA + A23187
T3 sequence (P18054 1-663): T1 sequence (P18054 1-663)

Row | Compound | change in IC50 with increasing Triton X-100 (aggregation test) [1] | reduction of DPPH (DPPH Antioxidant Test) | inhibition of PAR1-AP-mediated 12-HETE production (12-LOX in platelets) | inhibition of stimulated 12-HETE production [2] [%]
1 | CC(=O)NC(c1cccs1)c1cc(Cl)c2cccnc2c1O (centres unmarked) [Compound 3, N-((5-chloro-8-hydroxyquinolin-7-yl)(thiophen-2-yl)methyl)acetamide] | negligible changes in the IC50 |  |  | 
2 | CC(Cc1ccc(O)c(O)c1)C(C)Cc1ccc(O)c(O)c1 (centres unmarked) [NDGA, Nordihydroguaiaretic acid, reference compound] |  | Stoichiometric reduction of DPPH |  | 
3 | CCC(=O)NC(c1cccs1)c1cc([N+](=O)[O-])c2cccnc2c1O (centres unmarked) [Compound 1, N-((8-hydroxy-5-nitroquinolin-7-yl)(thiophen-2-yl)methyl)propionamide] |  | no reduction of DPPH was observed | significant inhibition | 74
